Where two headings read alike, the source gives them in different places.
Experiments:
783C-6 = assay: High-throughput drug screen, CellTiter-Glo viability, 72 h; assay type: cell-based, human; set-up: AUC: scale not given here; conditions: for AUC: area under the dose-response curve; for EC50: 72 h, read-out: EC50
Procedure, shortened: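 Cholangiocarcinoma cells were seeded at 3000/well in 384-well plates and dosed after 24 h. Drugs were tested at 10, 1, 0.1, 0.01 and 0.001 μM in duplicate for 72 h, with viability read by CellTiter-Glo luminescence.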

1405R3 = assay: as above; assay type: cell-based, human; set-up: AUC: scale not given here; conditions: 1405R3 DSRT analysis; for AUC: area under the dose-response curve; for MIN: lower asymptote of fitted dose-response curve; for SLOPE: slope of fitted dose-response curve; for EC50: 72 h, fitted dose-response curve, Min.Conc.tested 1, Max.Conc.tested 10000, read-out: EC50
Procedure, shortened: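 Responses are drug sensitivity scores (efficacy cutoff ≥10), fitted from CellTiter-Glo luminescence. Each drug was given at five concentrations (10 to 0.001 μM, tenfold steps) in duplicate for 72 h. Cells were plated at 3000/well 24 h before dosing.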

[1] = 783C-6 cells, DSS of DSRT analysis
[2] = 783C-6 cells, minimum of dose-response curve
[3] = 783C-6 DSRT analysis, DSS calculated from the dose-response curve
[4] = 783C-6 DSRT analysis, MIN of the fitted dose-response curve
[5] = 783C-6 DSRT analysis, slope of the fitted dose-response curve
[6] = 783C-6 cells, slope of fitted dose-response curve
[7] = 783C-6 DSRT analysis, CellTiter-Glo viability, fitted dose-response curve, Min.Conc.tested 1, Max.Conc.tested 10000

Compound	DSS (783C-6; [1])	AUC (783C-6; 783C-6 cells)	MIN (783C-6; [2])	AUC (1405R3)	DSS (1405R3; drug sensitivity score)	MIN (1405R3)	DSS (783C-6; [3])	MIN (783C-6; [4])	AUC (783C-6; 783C-6 DSRT analysis)	SLOPE (783C-6; [5])	DSS (1405R3; DSS)	SLOPE (1405R3)	SLOPE (783C-6; [6])	EC50 (1405R3; CellTiter-Glo viability, GI50)	EC50 (783C-6; [7])	EC50 (1405R3; CellTiter-Glo)	EC50 (783C-6; Homo sapiens)	EC50 (1405R3; Homo sapiens, CellTiter-Glo)	EC50 (1405R3; Homo sapiens, CellTiter-Glo viability, GI50)	EC50 (783C-6; 783C-6 cells, DSRT analysis, CellTiter-Glo viability, concentrations tested 1 to 10000 (unit inferred), GI50)
Cc1cc(-c2ccccc2)cc(C(=O)NNS(=O)(=O)c2cccc(O)c2)c1F [WM-3835]	0	15.7	93.1	14.5	0	90.6	–	–	–	–	–	–	–	–	–	–	–	–	–	–
CCN1C(=O)N(c2c(F)c(OC)cc(OC)c2F)Cc2cnc3[nH]c(CN4CCOCC4)cc3c21 [Pemigatinib]	4.8	62.9	78.8	7	0	76.8	–	–	–	–	–	–	–	–	–	–	–	–	–	–
CCC(CC)(NC(=O)C(C)C)C(=O)N[C@@H](CCCN=C(N)N)C(=O)NC1(C(=O)NC(c2ccc(F)cc2)c2ccc(F)cc2)CCCC1 [MM-102]	–	–	–	18.6	–	88.1	0	88.1	18.6	-0.1	0	-0.1	–	–	–	–	–	–	–	–
COc1ccccc1S(=O)(=O)Nc1ccc2c(c1)CN(C)C(=O)N2 [PFI-1]	0	7.2	94.7	38.8	4.4	55.4	–	–	–	–	–	-2.5	-2.5	1350 nM	–	–	–	–	–	–
CCCCN(Cc1ccc(C(=O)NO)cc1)C(=O)Nc1ccccc1 [Nexturastat A]	0	4.3	85.6	0.7	0	93.8	–	–	–	–	–	–	–	–	–	–	–	–	–	–
CC(C)Oc1ccc(-c2c[nH]cc2CN(C)CCN)cc1 [MS023]	3.9	57.8	80.8	7.3	0	75.6	–	–	–	–	–	–	–	–	–	–	–	–	–	–
N.N.[Cl][Pt][Cl] [Cisplatin]	–	–	–	22.7	–	71.3	2	65.1	20.4	-2.5	2	-1.8	–	–	2630 nM	1650 nM	–	–	–	–
O=C(/C=C/c1ccc(CN(CCO)CCc2c[nH]c3ccccc23)cc1)NO [Dacinostat]	–	–	–	132.5	–	1.4	11.6	2.5	99	–	15.8	–	–	–	–	–	965 nM	453 nM	–	–
Nc1ccccc1NC(=O)CCCCCCC(=O)Nc1ccccc1 [BML-210]	–	–	–	5.7	–	96.1	0	97	3.9	-2.5	0	-0.1	–	–	–	–	–	–	–	–
CNC(=O)c1ccccc1Sc1ccc2c(/C=C/c3ccccn3)n[nH]c2c1 [Axitinib]	–	–	–	6.8	–	91.1	0	90.6	2.8	–	0	–	–	–	–	–	–	–	–	–
Cc1ccc(C(=O)Nc2ccc(CN3CCN(C)CC3)c(C(F)(F)F)c2)cc1C#Cc1cnc2cccnn12 [Ponatinib]	7	59.9	66.9	16.5	0.6	87	–	–	–	–	–	–	–	–	–	–	155 nM	–	–	–
Nc1ccn([C@@H]2O[C@H](CO)[C@@H](O)C2(F)F)c(=O)n1 [Gemcitabine]	–	–	–	151.9	–	40	7.6	63.5	82.5	–	17.6	–	–	–	–	–	40.1 nM	26.1 nM	–	–
CN1CCc2c(c3ccccc3n2Cc2ccc(C(=O)NO)cc2)C1 [Tubastatin A]	0	3.2	92.9	8.2	0	92.6	–	–	–	–	–	–	–	–	–	–	–	–	–	–
Nc1cc(F)ccc1NC(=O)/C=C/c1cnn(C/C=C/c2ccccc2)c1 [RGFP966]	0	7	93.9	0.2	0	98.3	–	–	–	–	–	–	–	–	–	–	–	–	–	–
Cc1noc2c1-c1ccccc1C(c1ccc(Cl)cc1)=N[C@H]2CC(N)=O [CPI-0610]	–	–	–	64.6	–	49.2	0.7	84.7	34.4	–	6.7	–	–	–	–	–	–	566 nM	–	–
OG-L002	0	3	94.7	0.1	0	100	–	–	–	–	–	-0.1	-0.5	–	–	–	–	–	–	–
CCCC(CCC)C(=O)O [Valproic acid]	0	4.4	85.5	18.4	0	88.1	–	–	–	–	–	–	–	–	–	–	–	–	–	–
COc1cc(Nc2ncc3c(n2)-c2ccc(Cl)cc2C(c2c(F)cccc2OC)=NC3)ccc1C(=O)O [Alisertib]	–	–	–	15.4	–	89	3.7	73.6	52.1	–	0.1	–	–	–	–	–	108 nM	–	–	–
O=C(O)CCNc1cc(N2CCc3ccccc3CC2)nc(-c2ccccn2)n1 [GSK J1]	–	–	–	0.1	–	100	0	99.9	0	-1.3	0	-0.1	–	–	–	–	–	–	–	–
Cn1cc(CNCC2CCN(c3ncc(C(=O)NO)cn3)CC2)c2ccccc21 [Quisinostat]	26.9	227.2	1.2	180.7	21.1	0.1	–	–	–	–	–	–	–	–	–	–	50 nM	–	156 nM	–
O=C(O[C@@H]1Cc2c(O)cc(O)cc2O[C@@H]1c1cc(O)c(O)c(O)c1)c1cc(O)c(O)c(O)c1 [(-)-Epigallocatechin Gallate]	–	–	–	0.7	–	97.6	0	75.7	22.9	–	0	–	–	–	–	–	–	–	–	–
AZD4547	–	–	–	4.8	–	88.1	3.2	54.8	29.6	–	0	–	–	–	2230 nM	–	–	–	–	–
COc1cc2c(NC3CCN(C(C)C)CC3)nc(N3CCC(F)(F)CC3)nc2cc1OCCCN1CCCC1 [UNC0642]	0	7.2	94	0.1	0	99.3	–	–	–	–	–	–	–	–	–	–	–	–	–	–
Nc1ccccc1NC(=O)c1cnccn1 [BG45]	–	–	–	36.3	–	83.6	2.2	83.6	49	-0.3	0.1	-0.1	–	–	–	–	–	–	–	–
Cn1c(/C=C/C(=O)NO)ccc1/C=C/C(=O)c1cccc(F)c1 [MC1568]	–	–	–	2.6	–	94.6	0	98.4	0.2	-2.5	0	-0.6	–	–	–	–	–	–	–	–
CNCCN1CCC(OCc2ccccc2)CC1 [MS049]	0	4.9	83.6	20.8	0	86.6	–	–	–	–	–	-0.1	-1	–	–	–	–	–	–	–
COc1cc2nc(N3CCCN(C)CC3)nc(NC3CCN(Cc4ccccc4)CC3)c2cc1OC [BIX 01294]	–	–	–	42.6	–	12.3	4.7	28	42.4	–	4.6	–	–	–	–	–	2610 nM	3350 nM	–	–
CC[C@@H]1C(=O)N(C)c2cnc(Nc3ccc(C(=O)NC4CCN(C)CC4)cc3OC)nc2N1C1CCCC1 [BI 2536]	–	–	–	98.4	–	6.7	8.8	52.4	90	–	11.6	–	–	–	–	–	136 nM	884 nM	–	–
CNCCN(C)Cc1cn[nH]c1-c1ccc(OC2CC(OCCC3CCOCC3)C2)cc1.Cl (centres unmarked) [EPZ020411 2HCl]	–	–	–	0.3	–	97.2	0	96.5	1.7	-0.6	0	-2.5	–	–	–	–	–	–	–	–
C[C@@H]1O[C@@H](O[C@H]2[C@H](O[C@H]3[C@H](O[C@H]4CC[C@]5(C)[C@H]6CC=C7[C@@H]8CC(C)(C)CC[C@]8(C(=O)O)CC[C@@]7(C)[C@]6(C)CC[C@H]5C4(C)C)OC[C@H](O)[C@@H]3O)O[C@H](CO)[C@@H](O)[C@@H]2O)[C@H](O)[C@H](O)[C@H]1O [Raddeanin A]	5.9	52.9	3.4	56.1	6.3	1.8	–	–	–	–	–	-2.5	-2.5	2720 nM	–	–	–	–	–	2880 nM
